In patent US7169785B2, “Methods and compositions of novel triazine compounds” (Reddy US Therapeutics, Inc., priority 2001, dated 2007):
Like-named read-outs stand apart in the source and are kept apart here.

Experiments:
[1] = system: Human aortic smooth muscle cells; assay: Smooth muscle cell proliferation assay (anti-proliferation assay, perlecan); format: cell-based; conditions: Homo sapiens, anti-proliferation assay (perlecan)
[2] = system: IL-6; assay: TNF-α-induced IL-6 production determined by IL-6 ELISA in HAEC; format: cell-based, human; conditions: for activity at 10 µM / activity at 5 µM: Homo sapiens, 24 h
[3] = system: HAEC; assay: Toxicity to endothelial cells (HAEC) when TNF stimulated; format: cell-based
Description: (§1) Human aortic endothelial cells (HAEC, Clonetics) were cultured according to manufacturer in growth medium (Clonetics): basal medium containing human epidermal growth factor, hydrocortisone, vascular endothelial growth factor, heparin binding growth factor-B, long R3-insulin-like growth factor-1, ascorbic acid, gentamicin/amphotericin and 5% FBS. These cell were allowed to reach at least 90% confluency before subjected to experimental treatments. Glycated human serum albumin (G-HSA) was from US Biologicals. Tumor necrosis factor α was from R&D Systems.
[…] All treatments, compound-added and controls were carried out in serum free media containing 0.2% albumin. Media from all conditions were collected and used for IL-6 ELISA.

[4] = system: heparanase; assay: Induction and measurement of endothelial heparanase protein (TNF-induced heparanase secretion); format: cell-based, human; conditions: for inhibition at 10 µM: Homo sapiens; for Relative Activity: inhibition of TNF-induced heparanase secretion, scale at 5 uM compound concentration
Description: Experiments were carried out on human microvascular endothelial cells (HMVEC) grown in 48-well plates (˜90% confluency). To induce heparanase activity, culture media was replaced with 200 μl Dulbecco's Modified Eagle's medium (DMEM) complemented with 1% bovine serum albumin (BSA) and with or without stimulants (5 ng/ml TGF-alpha, 1 ng/ml IL 1alpha, 200 ng/ml VEGF or other stimulants, cytokines, or inducers as required). The secreted proteins were analyzed by SDS/PAGE and heparanase protein was detected by immunoblotting using polyclonal anti-human heparanase antibody. The changes of heparanase expression determined by densitometric analysis. The induction and measurement of endothelial heparanase protein reported in the Tables herein were carried out according to this Example.

[5] = system: IL-6; assay: AGE (G-HSA)-induced inflammatory response determined by IL-6 ELISA in HAEC; format: cell-based, human; conditions: for activity at 10 µM: 24 h, IL6, read-out: % IL6 production compare to AGE stimulation of IL6 (100%); for IC50: IL6, unit inferred, read-out: IC50 (AGE stimulation of IL6)
In short: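 Human aortic endothelial cells grown to ≥90% confluence, then treated with compounds and stimuli in serum-free medium with 0.2% albumin. Secreted IL-6 in collected media measured by sandwich ELISA (2 ug/ml capture, 200 ng/ml biotinylated detection antibody, streptavidin-HRP), read at 450 nm.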

[6] = system: cells; assay: Cytotoxicity / lactate dehydrogenase assay and visual observation of cells; format: cell-based
[7] = system: endothelial cells; assay: Toxicity to endothelial cells when AGE stimulated; format: cell-based, human
Description: as §1, with “Glycated human serum albumin (G-HSA) was from US Biologicals.” left out
All treatments, compound-added and controls were carried out in serum free media containing 0.2% albumin. Media from all conditions were collected and used for IL-6 ELISA.

[8] = Compds tested @ 10 uM, HAEC, IL6, read-out: % IL6 production compare to TNF stimulation of IL6 (100%)
[9] = Homo sapiens, Compds tested @ 10 uM
[10] = read-out: % IL6 production compare to TNF stimulation of IL6 (100%), HAEC, @ 5 uM
[11] = HAEC, @ 5 uM, read-out: % IL6 production compare to TNF stimulation of IL6 (100%)
[12] = endothelial cells, AGE stimulated

CCN(CC)c1ccc(Nc2nc(NCC3CCCN3CC)nc(NC3CCCCCC3)n2)cc1Cl (centres unmarked) [Compound 26, N^2-[3-chloro-4-(diethylamino)phenyl]-N^4-cycloheptyl-N^6-[(1-ethyl-2-pyrrolidinyl)methyl]-1,3,5-triazine-2,4,6-triamine]
IC50 ([1]; read-out: Activity (note 1)): > 7 µM
IC50 ([1]; read-out: Avg IC-50): 7.73 µM
activity at 10 µM [2, 8]: 1%
cells floating ([3]; TNF-stimulated HAEC, compound @ 10 uM): > 50%

CCN1CCCC1CNc1nc(Nc2ccc(OC)c(F)c2)nc(N2CCCCCC2)n1 (centres unmarked) [Compound 58, N^2-[(1-ethyl-2-pyrrolidinyl)methyl]-N^4-(3-fluoro-4-methoxyphenyl)-N^6-hexahydro-1H-azepin-1-yl-1,3,5-triazine-2,4-diamine]
inhibition at 10 µM ([4]; @ 10 uM): 40 to 60%
Relative Activity [4]: + (0–30% inhibition)
activity at 10 µM [5, 9]: 30%
activity at 10 µM [2, 8]: 1%

CCN1CCCC1CNc1nc(Nc2ccc(OC)c(F)c2)nc(N2CCC[C@H]2COC)n1 (some centres unmarked) [Compound 61]
Activity, inhibition of TNF-induced heparanase secretion ([4]; @ 10 uM): 40–60% inhibition @ 10 uM
Relative Activity [4]: + (0–30% inhibition)
% IL6 production compare to AGE stimulation of IL6 (100%) ([5]; Compds tested @ 10 uM, IL6): 38%
IC50 [5]: 6.47 µM
% IL6 production compare to TNF stimulation of IL6 (100%) ([2]; Compds tested @ 10 uM, HAEC, IL6): 2%
Inhibition of TNF-induced IL6 production ([2]; HAEC, class of % of control IL6 production): ++++ (between 0 and about 25% of IL6 production compared to cells that did not receive compound (or per cent of control IL6 production))

COc1ccc(Nc2nc(NC3CCCCCC3)nc(N3CCN(CC(=O)N4CCCC4)CC3)n2)cc1F [Compound 94, N^2-cycloheptyl-N^4-(3-fluoro-4-methoxyphenyl)-6-{4-[2-oxo-(1-pyrrolidinyl)ethyl]-1-piperazinyl}-1,3,5-triazine-2,4-diamine]
inhibition at 10 µM ([4]; @ 10 uM): 40 to 60%
Relative Activity [4]: + (0–30% inhibition)
activity at 10 µM [5, 9]: 10%
IC50 ([5]; Homo sapiens): 5.8 µM
activity at 10 µM [2, 8]: 32%

COc1ccc(Nc2nc(Nc3ccc(OC)c(Cl)c3)nc(N(C)C3CCN(C)CC3)n2)cc1Cl [Compound 121]
activity at 5 µM [2, 10]: 50%
Starts blunting by [6]: 1 µM
Toxic by toxicity assay at [6]: 0.75 µM
rounding by [6]: 5 µM
Toxic (AGE-treated) [7]: toxic
some toxicity ([3]; HAEC, @ 5 uM): ~20%
cell death in TNF-stimulated IL6 test ([3]; human, 24 h, 10 uM): total cell death

COc1ccc(Nc2nc(NC3CCCCCC3)nc(NC3CCN(Cc4ccccc4)CC3)n2)cc1Cl [Compound 134, N-(1-benzyl-piperidin-4-yl)-N′-(3-chloro-4-methoxy-phenyl)-N″-cycloheptyl-[1,3,5]-2,4,6-triamine]
activity at 5 µM [2, 11]: 55%
Toxic (AGE-treated) [7, 12]: toxic
cell death in TNF-stimulated IL6 test ([3]; HAEC, @ 10 uM): total cell death

COc1ccc(Nc2nc(NC3CCCCCC3)nc(NC3CCNCC3)n2)cc1Cl [Compound 135, N^2-(3-chloro-4-methoxy-phenyl)-N^4-cycloheptyl-N^6-piperidin-4-yl-1,3,5-triazine-2,4,6-triamine]
IC50 ([1]; read-out: Activity (note 1)): 3 to 7 µM
IC50 ([1]; read-out: Avg IC-50): 5.83 µM
activity at 5 µM [2, 11]: 60%
Toxic (AGE-treated) [7, 12]: toxic
cell death in TNF-stimulated IL6 test ([3]; HAEC, @ 10 uM): total cell death

CN1CCC(N(C)c2nc(Nc3ccc(O)c(Cl)c3)nc(NC3CCCCCC3)n2)CC1 [Compound 138]
IC50 ([1]; read-out: Activity (note 1)): 3 to 7 µM
IC50 ([1]; read-out: Avg IC-50): 4.03 µM
Toxic (AGE-treated) [7]: toxic

CCN1CCCC1CNc1nc(Nc2ccc(OC)c(Cl)c2)nc(NC2CN3CCC2CC3)n1 (centres unmarked) [Compound 148]
IC50 ([1]; read-out: Activity (note 1)): 3 to 7 µM
IC50 ([1]; read-out: Avg IC-50): < 5 µM
activity at 5 µM [2, 10]: 60%
Toxic (AGE-treated) [7]: toxic
cell death in TNF-stimulated IL6 test ([3]; human, 24 h, 10 uM): total cell death

COc1ccc(Nc2nc(NC3CCCCCC3)nc(N(C)C3CCNCC3)n2)cc1F [Compound 159, N^2-Cycloheptyl-N^4-(3-fluoro-4-methoxy-phenyl)-N^6-methyl-N^6piperidin-4-yl-1,3,5-triazine-2,4,6-triamine]
IC50 ([1]; read-out: Activity (note 1)): 3 to 7 µM
IC50 ([1]; read-out: Avg IC-50): 5.7 to 6.9 µM
Toxic (AGE-treated) [7]: toxic
cell death in TNF-stimulated IL6 test ([3]; human, 24 h, 5 uM): total cell death @ 5 and10 uM
cell death in TNF-stimulated IL6 test ([3]; human, 24 h, 10 uM): total cell death @ 5 and10 uM
